The values below come from patent US8710089B2, “Triazole derivatives as ghrelin analogue ligands of growth hormone secretagogue receptors” (Zentaris GmbH, priority 2005, dated 2014).

Structures are written as SMILES.

Test [1] deals with young-adult male Sprague-Dawley rats. In words: Feeding behavior (food intake) of young-adult male rats. The class given is in vivo, rat (Sprague-Dawley). The protocol: V) Assaying the Feeding Behavior (Food Intake) of Young-Adult Male Rats
The impact of compounds of the invention being GHS receptor analogue ligands on the feeding behaviour, i.e. food intake, of young-adult male rats was assayed.
In principle, assaying the feeding behavior (food intake) of young-adult male rats was performed according to Torsello et al. (Eur. J. Pharmacol. 1998, 360: 123-129).
For the assay, young-adult male Sprague-Dawley rats (Charles River, Calco, Italy), weighing 200-250 g, were used.
Rats had 1 week of acclimation in individual home cages, and animal room conditions (22±2° C., 65% humidity, artificial light from 08.00 to 20.00 h). The following week, they were daily trained to mimic the experimental procedure. Rats maintained free access to dry pellets and tap water throughout the whole experimental period. At the end of training, rats were administered (around 10.00-11.00 a.m.) subcutaneously with the compounds to be tested (160 μg/kg body weight) and/or hexarelin (80 μg/kg body weight) and/or solvent [DMSO (0.4% of total volume), distilled water (4% of total volume), brought to the final volume with physiological saline].
Hexarelin was used to study the effects of the compounds to be tested on stimulated feeding behavior. Immediately after the injections, the animals were returned to their home cages, which contained a known amount of standard rat chow and ad libitum water. Every hour for the following 6 hours, the remaining food was carefully collected and weighed to the nearest 0.1 g. Food intake was normalized for the body weight of the rats and expressed as grams of food eaten per 100 g body weight of rats.
In the following table 4 results obtained for selected compounds of the invention are presented.

The target of the next test is T1, human GHS-R 1a (Homo sapiens, UniProt Q92847).
T1 construct: expressed in transfected cells; host or cells: LLC PK-1 porcine renal epithelial cells (ECACC No. 86121112), isolated plasma membranes
Nature of the test: GHS-R 1a receptor-ligand binding assay (membrane preparations from transfected LLC PK-1 cells). Particulars: displacement of 125I-His9-ghrelin (60 pM); membranes of LLC PK-1 cells transfected with human GHS-R 1a; mean of at least two independent experiments in triplicates. The essentials: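 Membranes from LLC PK-1 cells expressing human GHS-R 1a incubated 60 min at 25 °C in 50 mM Tris pH 7.3, 5 mM MgCl2, 2.5 mM EDTA, bacitracin with 60 pM 125I-ghrelin and competitor; nonspecific binding with 10^-6 M ghrelin; filtration read-out.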

The subject of test [2] is GH concentration in the plasma of male rat pups. In words: In vivo GH concentration in the plasma of male rat pups. On the set-up: species or system rat (Sprague-Dawley). Particulars: rat pup plasma, killed 15 min later. On the procedure:
IV) Assaying In Vivo GH Concentration in the Plasma of Male Rat Pups
GH plasma concentrations of male rat pubs were assayed to characterize the modulation effect (antagonistic or agonistic) of the compounds of the invention being GHS receptor analogue ligands.
In principle, assaying in vivo GH concentration in rat plasma was performed according to Torsello et al. (Eur. J. Pharmacol. 1998, 360: 123-129).
Male Sprague-Dawley rat pups (Charles River, Calco, Italy) were separated on postnatal day seven from their mothers and randomly redistributed to the dams, so that each one nurtured ten to twelve pups. On postnatal day ten, the pups were again separated from their mothers.
The compounds to be tested were dissolved in solvent [DMSO (0.4% of total volume), distilled water (4% of total volume), brought to the final volume with physiological saline].
One hour after separation from their mothers, the pups were given isovolumetric amounts of the compounds to be tested (160 μg/kg body weight s.c.) at time −10 min and then administered with hexarelin (80 μg/kg body weight s.c.) or solvent at time 0 min before being killed 15 min later by decapitation. Trunk blood was collected, immediately centrifuged and plasma samples were stored at −20° C. until assayed for the determination of GH concentrations.
Plasma GH concentrations were measured using a rat growth hormone enzyme immunoassay kit (SPIbio, France, cat. no. 589601) according to the manufacturer's instructions. Values are expressed in terms of NIDDK rat-GH-RP2 standard (potency 2 IU/mg) as ng/mL of plasma
The limit of detection calculated as the concentration producing 15% displacement of initial tracer was 0.5 ng/ml; intra-assay and inter-assay coefficient of variation are 4% (n=24) and 14% (n=9).
In the following table 3 results obtained for selected compounds of the invention are presented.

[3] abbreviates: compound 160 μg/kg s.c. + hexarelin 80 μg/kg s.c.
Where [4] appears, read: compound alone, 160 μg/kg body weight s.c.
[5] abbreviates: compound 160 μg/kg s.c. at -10 min + hexarelin 80 μg/kg s.c. at 0 min.
Setting [6] is: compound alone 160 μg/kg body weight s.c. at -10 min, solvent at 0 min.

T1 sequence (Q92847 whole entry): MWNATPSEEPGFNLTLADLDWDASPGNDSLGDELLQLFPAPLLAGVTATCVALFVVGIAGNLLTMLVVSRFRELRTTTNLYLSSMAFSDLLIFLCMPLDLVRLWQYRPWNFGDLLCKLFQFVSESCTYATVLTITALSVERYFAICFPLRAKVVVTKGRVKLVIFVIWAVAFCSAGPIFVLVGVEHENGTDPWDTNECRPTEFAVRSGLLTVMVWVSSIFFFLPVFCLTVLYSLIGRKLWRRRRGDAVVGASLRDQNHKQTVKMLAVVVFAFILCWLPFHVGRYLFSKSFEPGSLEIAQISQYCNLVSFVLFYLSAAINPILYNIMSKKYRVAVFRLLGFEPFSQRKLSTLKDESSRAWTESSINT

The term IC50 denotes the concentration needed to halve the response being measured. A lower IC50 goes with greater potency in that assay. With `COc1ccc(Cn2c(CCCc3ccccc3)nnc2[C@@H](Cc2c[nH]c3ccccc23)NC(=O)C(C)(C)N)cc1` [compound 22, (R)—N-(1-(4-(4-methoxybenzyl)-5-(3-phenylpropyl)-4H-1,2,4-triazol-3-yl)-2-(1H-indol-3-yl)ethyl)-2-amino-2-methylpropanamide], the figures for the “Cumulative food intake (after 2 hours)” value in test [1] (setting [3]) and in test [1] (setting [4]) were 0.67 ± 0.12 g food/100 g body weight and 0.01 g food/100 g body weight, respectively. Moreover, the entries for the “Cumulative food intake (after 6 hours)” value in test [1] (setting [3]) and in test [1] (setting [4]) were 0.86 ± 0.18 g food/100 g body weight and 0.44 ± 0.2 g food/100 g body weight, respectively. This molecule yielded an IC50 at human GHS-R 1a of 12 nM. Besides, the GH concentration in test [2] (setting [5]) came to 239.91 ± 19.75 ng/mL; in test [2] (setting [6]) it was 4.88 ± 0.33 ng/mL.

As to `COc1ccc(Cn2c(CCc3c[nH]c4ccccc34)nnc2[C@@H](Cc2c[nH]c3ccccc23)NC(=O)[C@H]2CCCN2)cc1` [compound 90, (R)—N—((R)-1-(5-(2-(1H-indol-3-yl)ethyl)-4-(4-methoxybenzyl)-4H-1,2,4-triazol-3-yl)-2-(1H-indol-3-yl)ethyl)pyrrolidine-2-carboxamide], the entries for the “Cumulative food intake (after 2 hours)” value in test [1] (setting [3]) and in test [1] (setting [4]) were 0.054 ± 0.041 g food/100 g body weight and 0.014 ± 0.001 g food/100 g body weight, respectively. Moreover, the results for the “Cumulative food intake (after 6 hours)” value in test [1] (setting [3]) and in test [1] (setting [4]) were 0.069 ± 0.041 g food/100 g body weight and 0.035 ± 0.003 g food/100 g body weight, respectively. The IC50 on human GHS-R 1a is 28 nM. Further, the GH concentration in test [2] (setting [5]) was 218.844 ± 19.723 ng/mL; in test [2] (setting [6]), 16.857 ± 2.152 ng/mL.

On to `COc1ccc(Cn2c(CCc3ccccc3)nnc2[C@@H](Cc2c[nH]c3ccccc23)NC(=O)[C@H]2CCCN2)cc1` [compound 47, (R)—N—((R)-1-(4-(4-methoxybenzyl)-5-phenethyl-4H-1,2,4-triazol-3-yl)-2-(1H-indol-3-yl)ethyl)pyrrolidine-2-carboxamide], for which the “Cumulative food intake (after 2 hours)” value was 0.35 ± 0.201 g food/100 g body weight in test [1] (setting [3]) and 0.006 ± 0.002 g food/100 g body weight in test [1] (setting [4]). For the same molecule, the “Cumulative food intake (after 6 hours)” value in test [1] (setting [3]) was found to be 0.47 ± 0.1943 g food/100 g body weight; in test [1] (setting [4]), 0.02 ± 0 g food/100 g body weight. This molecule also had an IC50 at human GHS-R 1a of 27 nM. Besides, the GH concentration came to 160.857 ± 13.52 ng/mL in test [2] (setting [5]) and 5.658 ± 1.192 ng/mL in test [2] (setting [6]).

As to `COc1ccc(Cn2c(CCc3c[nH]c4ccccc34)nnc2[C@@H](Cc2c[nH]c3ccccc23)NC(=O)C(C)(C)N)cc1` [compound 12, (R)—N-(1-(5-(2-(1H-indol-3-yl)ethyl)-4-(4-methoxybenzyl)-4H-1,2,4-triazol-3-yl)-2-(1H-indol-3-yl)ethyl)-2-amino-2-methylpropanamide], the “Cumulative food intake (after 2 hours)” value in test [1] (setting [3]) is reported as 0.13 ± 0.07 g food/100 g body weight; in test [1] (setting [4]), 0.034 ± 0.011 g food/100 g body weight. The entries for the “Cumulative food intake (after 6 hours)” value in test [1] (setting [3]) and in test [1] (setting [4]) were 0.48 ± 0.22 g food/100 g body weight and 0.06 ± 0.019 g food/100 g body weight, respectively. Also, at human GHS-R 1a, the IC50 came out at 6 nM. Besides, the GH concentration in test [2] (setting [5]) was determined as 200.0 ± 19.7 ng/mL; in test [2] (setting [6]), 4.0 ± 0.12 ng/mL.

Take `COc1ccc(Cn2c(CCc3c[nH]c4ccccc34)nnc2[C@@H](Cc2c[nH]c3ccccc23)NC(=O)c2cnccn2)c(OC)c1` [compound 71, (R)—N-(1-(5-(2-(1H-indol-3-yl)ethyl)-4-(2,4-dimethoxybenzyl)-4H-1,2,4-triazol-3-yl)-2-(1H-indol-3-yl)ethyl)pyrazine-2-carboxamide]: the results for the “Cumulative food intake (after 2 hours)” value in test [1] (setting [3]) and in test [1] (setting [4]) were 0.117 ± 0.074 g food/100 g body weight and 0.522 ± 0.283 g food/100 g body weight, respectively. Further, the “Cumulative food intake (after 6 hours)” value in test [1] (setting [3]) is on record as 0.20 ± 0.01 g food/100 g body weight; in test [1] (setting [4]) it was 0.53 ± 0.28 g food/100 g body weight. Moreover, the IC50 at human GHS-R 1a came to 19 nM. Besides, the GH concentration in test [2] (setting [5]) amounted to 173.611 ± 18.444 ng/mL; in test [2] (setting [6]) it was 15.326 ± 1.355 ng/mL.

As for `CC(C)(N)C(=O)N[C@H](Cc1c[nH]c2ccccc12)c1nnc(CCCc2c[nH]c3ccccc23)n1Cc1ccccc1` [compound 9, (R)—N-(1-(5-(3-(1H-indol-3-yl)propyl)-4-benzyl-4H-1,2,4-triazol-3-yl)-2-(1H-indol-3-yl)ethyl)-2-amino-2-methylpropanamide], the “Cumulative food intake (after 2 hours)” value worked out at 0.0104 ± 0.0032 g food/100 g body weight in test [1] (setting [3]) and 0.01 ± 0 g food/100 g body weight in test [1] (setting [4]). For the same molecule, the “Cumulative food intake (after 6 hours)” value came to 0.0231 ± 0.0032 g food/100 g body weight in test [1] (setting [3]) and 0.01 ± 0 g food/100 g body weight in test [1] (setting [4]). Further, at human GHS-R 1a, the IC50 came to 46 nM. Besides, the GH concentration in test [2] (setting [5]) came out at 183.562 ± 16.729 ng/mL; in test [2] (setting [6]), 13.016 ± 1.960 ng/mL.

`COc1ccc(Cn2c(CCc3ccccc3)nnc2[C@@H](Cc2c[nH]c3ccccc23)NC(=O)[C@@H]2CCCCN2)cc1` [compound 48, (S)—N—((R)-1-(4-(4-methoxybenzyl)-5-phenethyl-4H-1,2,4-triazol-3-yl)-2-(1H-indol-3-yl)ethyl)piperidine-2-carboxamide]: the GH concentration in test [2] (setting [5]) came to 145.946 ± 12.159 ng/mL; in test [2] (setting [6]), 6.096 ± 2.091 ng/mL.

Turning to `COc1ccc(Cn2c(CCc3ccccc3)nnc2[C@@H](Cc2c[nH]c3ccccc23)NC(=O)CN)cc1` [compound 50, (R)—N-(1-(4-(4-methoxybenzyl)-5-phenethyl-4H-1,2,4-triazol-3-yl)-2-(1H-indol-3-yl)ethyl)-2-aminoacetamide], the figures for the “Cumulative food intake (after 2 hours)” value in test [1] (setting [3]) and in test [1] (setting [4]) were 0.003 ± 0.002 g food/100 g body weight and 0.012 ± 0.008 g food/100 g body weight, respectively. For the same molecule, the “Cumulative food intake (after 6 hours)” value in test [1] (setting [3]) turned out to be 0.017 ± 0.001 g food/100 g body weight; in test [1] (setting [4]), 0.039 ± 0.011 g food/100 g body weight. Moreover, the GH concentration came to 164.459 ± 4.443 ng/mL in test [2] (setting [5]) and 9.852 ± 1.040 ng/mL in test [2] (setting [6]).

As to `COc1ccc(Cn2c(CCc3c[nH]c4ccccc34)nnc2[C@@H](Cc2c[nH]c3ccccc23)NC(=O)C2CCNCC2)c(OC)c1` [compound 31, (R)—N-(1-(5-(2-(1H-indol-3-yl)ethyl)-4-(2,4-dimethoxybenzyl)-4H-1,2,4-triazol-3-yl)-2-(1H-indol-3-yl)ethyl)piperidine-4-carboxamide], at human GHS-R 1a, the IC50 turned out to be 0.5 nM. Also, the GH concentration in test [2] (setting [5]) turned out to be 103.528 ± 14.094 ng/mL; in test [2] (setting [6]), 119.937 ± 33.054 ng/mL.
